Key:
[1] = target: Casein kinase I isoform gamma-2 (Homo sapiens) (UniProt P78368); assay: Binding affinity to wild-type human full length CSNK1G2 (M1 to K415 residues) expressed in bacterial expression system assessed as residual binding level at 10 uM by Kinomescan method relative to control
[2] = target: Tyrosine-protein kinase receptor TYRO3 (Homo sapiens) (UniProt Q06418); assay: Binding affinity to wild-type human partial length TYRO3 (S497 to T814 residues) expressed in bacterial expression system assessed as residual binding level at 10 uM by Kinomescan method relative to control
[3] = target: Serine/threonine-protein kinase Sgk1 (Homo sapiens) (UniProt O00141); assay: Binding affinity to wild-type human partial length SGK (I60 to L431 residues) expressed in mammalian expression system assessed as residual binding level at 10 uM by Kinomescan method relative to control
[4] = target: Serine/threonine-protein kinase pim-3 (Homo sapiens) (UniProt Q86V86); assay: Binding affinity to wild-type human partial length PIM3 (G16 to A317 residues) expressed in bacterial expression system assessed as residual binding level at 10 uM by Kinomescan method relative to control
[5] = target: Phosphorylase b kinase gamma catalytic chain, skeletal muscle/heart isoform (Homo sapiens) (UniProt Q16816); assay: Binding affinity to wild-type human full length PHKG1 (M1 to Y387 residues) expressed in bacterial expression system assessed as residual binding level at 10 uM by Kinomescan method relative to control
Sequence of Phosphorylase b kinase gamma catalytic chain, skeletal muscle/heart isoform (Homo sapiens) (Q16816 whole entry, looked up, the tested form may be a part, canonical isoform): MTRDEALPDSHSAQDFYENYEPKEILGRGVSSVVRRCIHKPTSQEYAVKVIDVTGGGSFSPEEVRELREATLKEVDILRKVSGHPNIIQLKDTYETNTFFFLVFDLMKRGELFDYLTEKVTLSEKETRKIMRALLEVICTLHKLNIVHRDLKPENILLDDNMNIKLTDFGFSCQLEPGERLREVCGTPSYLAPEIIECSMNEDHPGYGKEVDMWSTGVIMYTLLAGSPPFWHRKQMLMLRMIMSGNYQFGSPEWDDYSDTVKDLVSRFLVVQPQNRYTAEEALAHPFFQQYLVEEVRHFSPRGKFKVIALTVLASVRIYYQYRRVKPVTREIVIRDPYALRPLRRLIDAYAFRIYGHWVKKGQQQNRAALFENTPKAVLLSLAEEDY

[6] = test system: ALK tyrosine kinase receptor (Homo sapiens), Q9UM73 [L1196M]; assay: Binding affinity to […] human partial length ALK L1196M mutant (I1088 to E1409 residues) expressed in mammalian expression system assessed as residual binding level at 10 uM by Kinomescan method relative to control
[7] = target: Homeodomain-interacting protein kinase 1 (Homo sapiens) (UniProt Q86Z02); assay: Binding affinity to wild-type human partial length HIPK1 (M146 to I555 residues) expressed in mammalian expression system assessed as residual binding level at 10 uM by Kinomescan method relative to control
[8] = test system: Phosphatidylinositol 4,5-bisphosphate 3-kinase catalytic subunit alpha isoform (Homo sapiens), P42336 [H1047Y]; assay: Binding affinity to human partial length PIK3CA H1047Y mutant (R108 to N1068 residues) expressed in mammalian expression system assessed as residual binding level at 10 uM by Kinomescan method relative to control
Sequence of Phosphatidylinositol 4,5-bisphosphate 3-kinase catalytic subunit alpha isoform (Homo sapiens), P42336 [H1047Y] (P42336 whole entry H1047Y, the tested form may be a part, canonical isoform): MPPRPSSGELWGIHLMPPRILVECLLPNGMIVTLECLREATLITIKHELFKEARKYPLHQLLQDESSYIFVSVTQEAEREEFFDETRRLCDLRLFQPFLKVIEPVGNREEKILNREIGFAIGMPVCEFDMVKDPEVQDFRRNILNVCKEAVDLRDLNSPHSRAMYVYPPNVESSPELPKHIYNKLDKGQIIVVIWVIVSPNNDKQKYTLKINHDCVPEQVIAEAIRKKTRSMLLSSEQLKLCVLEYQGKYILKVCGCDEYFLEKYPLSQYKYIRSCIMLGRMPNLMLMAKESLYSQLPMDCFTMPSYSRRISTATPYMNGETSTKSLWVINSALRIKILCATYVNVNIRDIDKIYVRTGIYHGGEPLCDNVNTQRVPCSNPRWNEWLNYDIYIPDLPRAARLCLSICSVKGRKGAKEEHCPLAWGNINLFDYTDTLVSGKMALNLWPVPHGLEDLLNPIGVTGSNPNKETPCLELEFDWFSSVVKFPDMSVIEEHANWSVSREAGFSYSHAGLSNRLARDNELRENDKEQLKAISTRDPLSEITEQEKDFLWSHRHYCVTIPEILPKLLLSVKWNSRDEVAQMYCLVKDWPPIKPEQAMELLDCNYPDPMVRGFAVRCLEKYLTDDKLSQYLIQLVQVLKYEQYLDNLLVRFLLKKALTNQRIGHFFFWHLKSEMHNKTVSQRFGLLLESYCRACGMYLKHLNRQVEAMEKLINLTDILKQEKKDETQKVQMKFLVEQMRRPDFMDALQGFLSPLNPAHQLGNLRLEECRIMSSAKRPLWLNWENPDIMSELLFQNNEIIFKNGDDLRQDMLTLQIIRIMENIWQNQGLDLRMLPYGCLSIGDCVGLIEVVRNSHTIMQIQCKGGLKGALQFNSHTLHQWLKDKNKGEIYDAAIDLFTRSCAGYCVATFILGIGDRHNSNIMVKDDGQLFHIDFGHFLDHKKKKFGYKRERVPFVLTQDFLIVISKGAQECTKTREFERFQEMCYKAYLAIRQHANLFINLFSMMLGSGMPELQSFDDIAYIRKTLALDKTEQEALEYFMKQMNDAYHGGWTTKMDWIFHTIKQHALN

[9] = target: Phosphatidylinositol 4-phosphate 5-kinase type-1 gamma (Homo sapiens) (UniProt O60331); assay: Binding affinity to wild-type human partial length PIP5K1C (M1 to T668 residues) expressed in mammalian expression system assessed as residual binding level at 10 uM by Kinomescan method relative to control
Sequence of Phosphatidylinositol 4-phosphate 5-kinase type-1 gamma (Homo sapiens) (O60331 whole entry, the tested form may be a part): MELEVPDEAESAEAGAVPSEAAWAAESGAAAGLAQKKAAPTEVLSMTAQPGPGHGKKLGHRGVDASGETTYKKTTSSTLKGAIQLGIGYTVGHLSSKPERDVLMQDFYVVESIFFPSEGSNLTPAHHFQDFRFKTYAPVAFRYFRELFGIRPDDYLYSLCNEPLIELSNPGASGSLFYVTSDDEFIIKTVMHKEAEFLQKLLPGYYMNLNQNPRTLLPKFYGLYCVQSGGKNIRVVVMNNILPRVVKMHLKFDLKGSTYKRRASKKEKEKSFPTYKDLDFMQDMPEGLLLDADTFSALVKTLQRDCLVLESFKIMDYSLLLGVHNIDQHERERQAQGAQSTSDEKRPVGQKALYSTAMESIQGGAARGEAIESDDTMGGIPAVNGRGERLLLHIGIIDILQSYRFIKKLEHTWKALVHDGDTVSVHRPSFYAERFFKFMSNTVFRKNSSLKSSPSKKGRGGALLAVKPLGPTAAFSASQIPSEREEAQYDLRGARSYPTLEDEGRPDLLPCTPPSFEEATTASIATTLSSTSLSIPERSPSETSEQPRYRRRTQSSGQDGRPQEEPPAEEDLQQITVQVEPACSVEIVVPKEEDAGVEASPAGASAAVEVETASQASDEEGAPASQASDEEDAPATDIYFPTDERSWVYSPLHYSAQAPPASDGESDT

[10] = target: Tyrosine-protein kinase Yes (Homo sapiens) (UniProt P07947); assay: Binding affinity to wild-type human partial length YES (T257 to L543 residues) expressed in bacterial expression system assessed as residual binding level at 10 uM by Kinomescan method relative to control
[11] = target: Cytoplasmic tyrosine-protein kinase BMX (Homo sapiens) (UniProt P51813); assay: Binding affinity to wild-type human full length BMX (M1 to H675 residues) expressed in bacterial expression system assessed as residual binding level at 10 uM by Kinomescan method relative to control
[12] = test system: Tyrosine-protein kinase ABL1 (Homo sapiens), P00519 [T315I]; assay: Binding affinity to human non-phosphorylated ABL1 T315I mutant (S229 to K512 residues) expressed in mammalian expression system assessed as residual binding level at 10 uM by Kinomescan method relative to control
[13] = target: Atypical kinase COQ8A, mitochondrial (Homo sapiens) (UniProt Q8NI60); assay: Binding affinity to wild-type human full length ADCK3 (M280 to Q647 residues) expressed in bacterial expression system assessed as residual binding level at 10 uM by Kinomescan method relative to control
[14] = target: SNF-related serine/threonine-protein kinase (Homo sapiens) (UniProt Q9NRH2); assay: Binding affinity to wild-type human partial length SNRK (M1 to E339 residues) expressed in mammalian expression system assessed as residual binding level at 10 uM by Kinomescan method relative to control
[15] = target: Mitogen-activated protein kinase kinase kinase 7 (Homo sapiens) (UniProt O43318); assay: Binding affinity to wild-type human partial length TAK1 (M1 to Q303 residues) expressed in mammalian expression system assessed as residual binding level at 10 uM by Kinomescan method relative to control
[16] = target: Tyrosine-protein kinase ABL1 (Homo sapiens) (UniProt P00519); assay: Binding affinity to wild-type human phosphorylated ABL1 (S229 to K512 residues) expressed in mammalian expression system assessed as residual binding level at 10 uM by Kinomescan method relative to control
[17] = target: Tyrosine-protein kinase Fyn (Homo sapiens) (UniProt P06241); assay: Binding affinity to wild-type human partial length FYN (T243 to L534 residues) expressed in bacterial expression system assessed as residual binding level at 10 uM by Kinomescan method relative to control
Sequence of Tyrosine-protein kinase Fyn (Homo sapiens) (P06241 2-537 limits assumed): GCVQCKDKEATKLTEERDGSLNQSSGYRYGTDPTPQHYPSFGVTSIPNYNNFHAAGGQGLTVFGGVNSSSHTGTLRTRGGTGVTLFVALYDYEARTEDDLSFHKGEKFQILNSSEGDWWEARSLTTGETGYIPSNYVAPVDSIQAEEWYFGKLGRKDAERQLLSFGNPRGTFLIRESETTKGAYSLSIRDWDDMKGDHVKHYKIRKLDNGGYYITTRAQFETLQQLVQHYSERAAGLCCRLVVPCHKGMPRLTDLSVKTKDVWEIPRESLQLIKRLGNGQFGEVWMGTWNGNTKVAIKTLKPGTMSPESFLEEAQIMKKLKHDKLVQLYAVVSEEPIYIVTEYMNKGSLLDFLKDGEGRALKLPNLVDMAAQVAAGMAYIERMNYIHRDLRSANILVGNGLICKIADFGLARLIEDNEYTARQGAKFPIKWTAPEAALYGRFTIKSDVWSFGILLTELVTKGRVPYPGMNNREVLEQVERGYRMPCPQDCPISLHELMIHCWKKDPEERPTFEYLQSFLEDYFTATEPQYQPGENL

[18] = target: Microtubule-associated serine/threonine-protein kinase 1 (Homo sapiens) (UniProt Q9Y2H9); assay: Binding affinity to wild-type human partial length MAST1 (S346 to V730 residues) expressed in mammalian expression system assessed as residual binding level at 10 uM by Kinomescan method relative to control
[19] = target: MAP/microtubule affinity-regulating kinase 3 (Homo sapiens) (UniProt P27448); assay: Binding affinity to wild-type human full length MARK3 (M1 to L729 residues) expressed in bacterial expression system assessed as residual binding level at 10 uM by Kinomescan method relative to control
Sequence of MAP/microtubule affinity-regulating kinase 3 (Homo sapiens) (P27448 whole entry, looked up, the tested form may be a part): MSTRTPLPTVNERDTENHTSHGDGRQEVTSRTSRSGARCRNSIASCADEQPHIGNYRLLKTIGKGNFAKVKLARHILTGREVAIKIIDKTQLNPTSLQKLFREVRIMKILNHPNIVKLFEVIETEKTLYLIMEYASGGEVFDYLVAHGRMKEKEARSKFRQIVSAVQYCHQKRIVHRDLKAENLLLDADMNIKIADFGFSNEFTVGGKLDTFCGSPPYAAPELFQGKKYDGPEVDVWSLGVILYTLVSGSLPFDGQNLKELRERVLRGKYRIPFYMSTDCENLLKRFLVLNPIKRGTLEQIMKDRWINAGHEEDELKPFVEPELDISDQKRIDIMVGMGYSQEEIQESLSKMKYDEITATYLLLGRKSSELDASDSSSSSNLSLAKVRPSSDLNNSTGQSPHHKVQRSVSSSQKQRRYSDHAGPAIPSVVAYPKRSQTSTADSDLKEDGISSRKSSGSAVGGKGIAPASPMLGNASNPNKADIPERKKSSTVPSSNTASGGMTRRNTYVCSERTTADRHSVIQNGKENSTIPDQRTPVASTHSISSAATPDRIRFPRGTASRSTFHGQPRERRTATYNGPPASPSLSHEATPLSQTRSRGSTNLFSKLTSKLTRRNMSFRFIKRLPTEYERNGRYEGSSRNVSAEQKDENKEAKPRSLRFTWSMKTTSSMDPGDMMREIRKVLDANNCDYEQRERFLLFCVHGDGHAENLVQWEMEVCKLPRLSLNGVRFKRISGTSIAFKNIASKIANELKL

[20] = target: G protein-coupled receptor kinase 4 (Homo sapiens) (UniProt P32298); assay: Binding affinity to wild-type human full length GRK4 (M1 to C578 residues) expressed in bacterial expression system assessed as residual binding level at 10 uM by Kinomescan method relative to control
Sequence of G protein-coupled receptor kinase 4 (Homo sapiens) (P32298 whole entry, looked up, the tested form may be a part): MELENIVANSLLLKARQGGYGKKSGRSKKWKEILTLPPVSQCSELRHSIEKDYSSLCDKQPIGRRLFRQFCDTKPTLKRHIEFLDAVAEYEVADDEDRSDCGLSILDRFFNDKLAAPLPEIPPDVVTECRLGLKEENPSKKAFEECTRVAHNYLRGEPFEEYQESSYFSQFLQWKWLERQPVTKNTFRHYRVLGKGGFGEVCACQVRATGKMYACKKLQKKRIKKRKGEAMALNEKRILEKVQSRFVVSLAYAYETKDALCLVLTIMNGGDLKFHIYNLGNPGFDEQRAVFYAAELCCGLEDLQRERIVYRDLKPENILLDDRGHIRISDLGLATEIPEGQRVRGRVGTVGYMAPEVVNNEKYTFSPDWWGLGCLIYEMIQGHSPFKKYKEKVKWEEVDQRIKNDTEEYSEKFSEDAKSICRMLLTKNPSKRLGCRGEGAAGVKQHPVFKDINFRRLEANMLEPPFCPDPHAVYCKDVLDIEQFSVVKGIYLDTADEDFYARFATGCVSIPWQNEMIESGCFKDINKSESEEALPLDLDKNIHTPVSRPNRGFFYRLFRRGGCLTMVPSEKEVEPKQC

[21] = target: Ribosomal protein S6 kinase alpha-3 (Homo sapiens) (UniProt P51812); assay: Binding affinity to wild-type human partial length C-terminal RSK2 kinase domain 2 (V402 to S715 residues) expressed in mammalian expression system assessed as residual binding level at 10 uM by Kinomescan method relative to control
[22] = target: Casein kinase II subunit alpha (Homo sapiens) (UniProt P68400); assay: Binding affinity to wild-type human full length CSNK2A1 (M1 to Q391 residues) expressed in mammalian expression system assessed as residual binding level at 10 uM by Kinomescan method relative to control
[23] = target: Phosphatidylinositol 4,5-bisphosphate 3-kinase catalytic subunit beta isoform (Homo sapiens) (UniProt P42338); assay: Binding affinity to wild-type human partial length PIK3CB (P118 to S1070 residues) expressed in mammalian expression system assessed as residual binding level at 10 uM by Kinomescan method relative to control
Sequence of Phosphatidylinositol 4,5-bisphosphate 3-kinase catalytic subunit beta isoform (Homo sapiens) (P42338 whole entry, looked up, the tested form may be a part, canonical isoform): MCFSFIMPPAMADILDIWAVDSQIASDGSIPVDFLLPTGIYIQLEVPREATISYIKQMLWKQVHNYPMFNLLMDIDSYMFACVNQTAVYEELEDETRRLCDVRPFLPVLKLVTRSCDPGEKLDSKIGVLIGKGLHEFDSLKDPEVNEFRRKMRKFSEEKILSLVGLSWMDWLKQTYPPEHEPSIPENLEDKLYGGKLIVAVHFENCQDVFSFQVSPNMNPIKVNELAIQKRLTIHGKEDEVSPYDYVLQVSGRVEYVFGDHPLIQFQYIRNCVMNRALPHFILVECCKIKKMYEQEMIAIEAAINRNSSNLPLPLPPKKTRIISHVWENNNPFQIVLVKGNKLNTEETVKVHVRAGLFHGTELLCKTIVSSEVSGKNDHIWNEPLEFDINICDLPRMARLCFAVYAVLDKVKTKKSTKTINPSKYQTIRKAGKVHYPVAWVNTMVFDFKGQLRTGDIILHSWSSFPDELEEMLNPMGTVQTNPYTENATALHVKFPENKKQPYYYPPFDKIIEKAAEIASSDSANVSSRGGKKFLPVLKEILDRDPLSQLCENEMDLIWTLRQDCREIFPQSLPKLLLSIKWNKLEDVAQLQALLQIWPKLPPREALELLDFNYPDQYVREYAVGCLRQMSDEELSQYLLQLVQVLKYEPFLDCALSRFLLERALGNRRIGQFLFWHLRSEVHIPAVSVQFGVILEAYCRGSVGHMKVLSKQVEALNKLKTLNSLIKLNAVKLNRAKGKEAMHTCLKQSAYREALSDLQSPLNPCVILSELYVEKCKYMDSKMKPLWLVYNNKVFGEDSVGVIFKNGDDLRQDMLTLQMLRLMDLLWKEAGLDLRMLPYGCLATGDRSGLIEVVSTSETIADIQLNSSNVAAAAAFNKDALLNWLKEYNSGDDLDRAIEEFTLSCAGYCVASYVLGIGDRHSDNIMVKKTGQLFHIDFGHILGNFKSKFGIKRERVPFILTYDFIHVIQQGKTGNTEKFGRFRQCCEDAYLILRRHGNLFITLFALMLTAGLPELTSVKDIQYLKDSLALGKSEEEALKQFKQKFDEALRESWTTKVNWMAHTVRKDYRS

[24] = target: Mitogen-activated protein kinase 9 (Homo sapiens) (UniProt P45984); assay: Binding affinity to wild-type human full length JNK2 (M1 to Q382 residues) expressed in mammalian expression system assessed as residual binding level at 10 uM by Kinomescan method relative to control

## CC(C)N1C(=O)C(NCCCN(C)C)=C(c2cn(C)c3ccccc23)C1=O.Cl
[1]
  Activity: 91%
[2]
  Activity: 100%
[3]
  Activity: 95%
[4]
  Activity: 98%
[5]
  Activity: 94%
[6]
  Activity: 90%
[7]
  Activity: 100%
[8]
  Activity: 94%
[9]
  Activity: 96%
[10]
  Activity: 100%
[11]
  Activity: 97%
[12]
  Activity: 93%
[13]
  Activity: 91%
[14]
  Activity: 91%
[15]
  Activity: 78%
[16]
  Activity: 92%
[17]
  Activity: 100%
[18]
  Activity: 87%
[19]
  Activity: 78%
[20]
  Activity: 88%
[21]
  Activity: 87%
[22]
  Activity: 98%
[23]
  Activity: 89%
[24]
  Activity: 80%

Reference: ChEMBL document CHEMBL4304811, “Development of a Water-Soluble Indolylmaleimide Derivative IM-93 Showing Dual Inhibition of Ferroptosis and NETosis” (ACS Med Chem Lett, 2019)
